Results from patent publication US7138361B2, “Herbicidal heterocycles” (E. I. du Pont de Nemours and Company, priority 2000, dated 2006).

How the values were obtained:
Experiment in all cases: Test C postemergence
Assay type in all cases: in vivo
[1] = system: woolly cupgrass (Eriochloa villosa)
In short: (§1)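 Seeds are planted and treated before emergence; for the postemergence test, plants at 1- to 4-leaf stage (2–18 cm) receive the same formulation, a solvent blend containing surfactant. Plants stay in the greenhouse 12–14 days, then response is scored visually from 0 (none) to 100 (complete control).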

kochia (Kochia scoparia) = system: kochia (Kochia scoparia)
In short: as §1

[2] = system: crabgrass (Digitaria sanguinalis)
In short: as §1

[3] = system: cocklebur (Xanthium strumarium)
In short: as §1

soybean (Glycine max) = system: soybean (Glycine max)
In short: as §1

[4] = system: pigweed (Amaranthus retroflexus)
In short: as §1

[5] = system: common ragweed (Ambrosia elatior)
In short: as §1

[6] = system: johnsongrass (Sorghum halepense)
In short: as §1

[7] = Rate 125 g/ha, scale 0 to 100, 0 no effect, 100 complete control
[8] = Rate 250 g/ha, scale 0 to 100 (0 no effect, 100 complete control)
[9] = Rate 500 g/ha, scale 0 to 100 (0 no effect, 100 complete control)

Row | Compound | Plant response rating, Cupgrass, Woolly ([1]; Rate 62 g/ha, scale 0 to 100) | Plant response rating, Cupgrass, Woolly [1, 7] | Plant response rating, Cupgrass, Woolly [1, 8] | Plant response rating, Kochia (kochia (Kochia scoparia); Rate 62 g/ha, scale 0 to 100) | Plant response rating, Kochia (kochia (Kochia scoparia); [7]) | Plant response rating, Kochia (kochia (Kochia scoparia); [8]) | Plant response rating, Crabgrass ([2]; Rate 62 g/ha, scale 0 to 100) | Plant response rating, Crabgrass [2, 7] | Plant response rating, Crabgrass [2, 8] | Plant response rating, Cocklebur ([3]; Rate 62 g/ha, scale 0 to 100) | Plant response rating, Cocklebur [3, 7] | Plant response rating, Cocklebur [3, 8] | Plant response rating, Soybean (soybean (Glycine max); Rate 62 g/ha, scale 0 to 100) | Plant response rating, Soybean (soybean (Glycine max); [7]) | Plant response rating, Soybean (soybean (Glycine max); [8]) | Plant response rating, Pigweed ([4]; Rate 62 g/ha, scale 0 to 100) | Plant response rating, Pigweed [4, 7] | Plant response rating, Pigweed [4, 8] | Plant response rating, Ragweed, Common ([5]; Rate 62 g/ha, scale 0 to 100) | Plant response rating, Ragweed, Common [5, 7] | other results
1 | CCCC(C)c1ccn(C2OCN(c3cccc(OC(F)(F)F)c3)C2=O)n1 (stereo not shown) [Compound 91] | 20 | 20 | 40 | 70 | 70 | 90 | 20 | 20 | 30 | 0 | 0 | 0 | 0 | 0 | 0 | 70 | 70 | 90 | 0 | 0 | Plant response rating, Cupgrass, Woolly [1, 9]: 40; Plant response rating, Kochia (kochia (Kochia scoparia); [9]): 90; Plant response rating, Crabgrass [2, 9]: 60; Plant response rating, Cocklebur [3, 9]: 20; Plant response rating, Soybean (soybean (Glycine max); [9]): 0; Plant response rating, Pigweed [4, 9]: 100; Plant response rating, Ragweed, Common [5, 8]: 0; Plant response rating, Ragweed, Common [5, 9]: 40; Plant response rating, Johnsongrass ([6]; Rate 62 g/ha, scale 0 to 100): 20; Plant response rating, Johnsongrass [6, 7]: 20; Plant response rating, Johnsongrass [6, 8]: 30; Plant response rating, Johnsongrass [6, 9]: 70
2 | CCC(CC)c1ccn(C2CCN(c3ccc(C)c(OC)c3)C2=O)n1 (stereo not shown) [Compound 81] | 0 | 0 | 0 | 50 | 50 | 70 | 0 | 0 | 0 | 0 | 20 | 50 | 60 | 70 | 90 | 0 | 0 | 60 | 0 | 0 | Plant response rating, Cupgrass, Woolly ([1]; Rate 31 g/ha, scale 0 to 100): 0; Plant response rating, Kochia (kochia (Kochia scoparia); Rate 31 g/ha, scale 0 to 100): 40; Plant response rating, Crabgrass ([2]; Rate 31 g/ha, scale 0 to 100): 0; Plant response rating, Cocklebur ([3]; Rate 31 g/ha, scale 0 to 100): 0; Plant response rating, Soybean (soybean (Glycine max); Rate 31 g/ha, scale 0 to 100): 50; Plant response rating, Pigweed ([4]; Rate 31 g/ha, scale 0 to 100): 0; Plant response rating, Ragweed, Common ([5]; Rate 31 g/ha, scale 0 to 100): 0; Plant response rating, Ragweed, Common [5, 8]: 0; Plant response rating, Johnsongrass ([6]; Rate 31 g/ha, scale 0 to 100): 0; Plant response rating, Johnsongrass ([6]; Rate 62 g/ha, scale 0 to 100): 0; Plant response rating, Johnsongrass [6, 7]: 0; Plant response rating, Johnsongrass [6, 8]: 0
3 | CCOc1cc(N2CCC(n3ccc(C(C)(C)C)n3)C2=O)ccc1C (stereo not shown) [Compound 106] | 10 | 30 | 40 | 70 | 90 | 100 | 0 | 0 | 0 | 30 | 80 | 90 | 70 | 70 | 80 | 70 | 80 | 80 | 0 | 90 | Plant response rating, Cupgrass, Woolly ([1]; Rate 31 g/ha, scale 0 to 100): 0; Plant response rating, Kochia (kochia (Kochia scoparia); Rate 31 g/ha, scale 0 to 100): 70; Plant response rating, Crabgrass ([2]; Rate 31 g/ha, scale 0 to 100): 0; Plant response rating, Cocklebur ([3]; Rate 31 g/ha, scale 0 to 100): 30; Plant response rating, Soybean (soybean (Glycine max); Rate 31 g/ha, scale 0 to 100): 70; Plant response rating, Pigweed ([4]; Rate 31 g/ha, scale 0 to 100): 70; Plant response rating, Johnsongrass ([6]; Rate 31 g/ha, scale 0 to 100): 0; Plant response rating, Johnsongrass ([6]; Rate 62 g/ha, scale 0 to 100): 0; Plant response rating, Johnsongrass [6, 7]: 0; Plant response rating, Johnsongrass [6, 8]: 0
